Test results from ChEMBL document CHEMBL4825734, “Synthesis, activity and mechanism for double-ring conjugated enones” (Bioorg Med Chem Lett, 2021).
Activity calls are given as the source filed them. The rule behind the calls is not given here.

What was measured:
[1] = molecular target: Toll-like receptor 4 (Homo sapiens, UniProt O00206); assay: Inhibition of TLR4 (unknown origin) by sandwich ELISA method
[2] = system: Synovial cell; assay: Induction of apoptosis in rat synovial cells assessed as increase in caspase-3 expression at 1 uM in presence of LPS by DAPI staining based immunofluorescence microscopic analysis; type: functional
[3] = system: Synovial cell; assay: Induction of apoptosis in rat synovial cells assessed as green coloured positive apoptotic cells with nuclear pyknosis and chromatin condensation at 1 uM in presence of LPS by TUNEL staining based microscopic analysis; type: functional
[4] = system: Synovial cell; assay: Antiinflammatory activity in rat synovial cells assessed as downregulation of LPS-induced TNF-alpha production at 1 uM measured by ELISA; type: functional, cell-based
[5] = system: Synovial cell; assay: Antiinflammatory activity in rat synovial cells assessed as downregulation of LPS-induced IL-1 beta production at 1 uM measured by ELISA; type: functional, cell-based
[6] = system: Synovial cell; assay: Antiinflammatory activity in rat synovial cells assessed as downregulation of LPS-induced IL-6 production at 1 uM measured by ELISA; type: functional, cell-based
[7] = system: Synovial cell; assay: Antiinflammatory activity in rat synovial cells assessed as decrease in LPS-induced TLR4 protein expression at 1 uM by DAPI staining based immunofluorescence microscopic analysis; type: functional
[8] = system: Synovial cell; assay: Antiinflammatory activity in rat synovial cells assessed as decrease in LPS-induced MyD88 protein expression at 1 uM by DAPI staining based immunofluorescence microscopic analysis; type: functional
[9] = system: Synovial cell; assay: Antiinflammatory activity in rat synovial cells assessed as decrease in LPS-induced NF-kappaB protein expression at 1 uM by DAPI staining based immunofluorescence microscopic analysis; type: functional
[10] = system: Synovial cell; assay: Antiinflammatory activity in LPS-stimulated rat synovial cells assessed as increase in IkappaB protein expression at 1 uM by DAPI staining based immunofluorescence microscopic analysis; type: functional
[11] = system: Synovial cell; assay: Inhibition of LPS-induced abnormal proliferation in rat synovial cells assessed as reduction in cell number at 1 uM; type: functional, cell-based
[12] = system: Synovial cell; assay: Inhibition of LPS-induced cytomorphological changes in rat synovial cells assessed as reduction in refractive ability with irregular spindle or round shaped cell body at 1 uM; type: functional, cell-based

Toll-like receptor 4, sequence (O00206 whole entry): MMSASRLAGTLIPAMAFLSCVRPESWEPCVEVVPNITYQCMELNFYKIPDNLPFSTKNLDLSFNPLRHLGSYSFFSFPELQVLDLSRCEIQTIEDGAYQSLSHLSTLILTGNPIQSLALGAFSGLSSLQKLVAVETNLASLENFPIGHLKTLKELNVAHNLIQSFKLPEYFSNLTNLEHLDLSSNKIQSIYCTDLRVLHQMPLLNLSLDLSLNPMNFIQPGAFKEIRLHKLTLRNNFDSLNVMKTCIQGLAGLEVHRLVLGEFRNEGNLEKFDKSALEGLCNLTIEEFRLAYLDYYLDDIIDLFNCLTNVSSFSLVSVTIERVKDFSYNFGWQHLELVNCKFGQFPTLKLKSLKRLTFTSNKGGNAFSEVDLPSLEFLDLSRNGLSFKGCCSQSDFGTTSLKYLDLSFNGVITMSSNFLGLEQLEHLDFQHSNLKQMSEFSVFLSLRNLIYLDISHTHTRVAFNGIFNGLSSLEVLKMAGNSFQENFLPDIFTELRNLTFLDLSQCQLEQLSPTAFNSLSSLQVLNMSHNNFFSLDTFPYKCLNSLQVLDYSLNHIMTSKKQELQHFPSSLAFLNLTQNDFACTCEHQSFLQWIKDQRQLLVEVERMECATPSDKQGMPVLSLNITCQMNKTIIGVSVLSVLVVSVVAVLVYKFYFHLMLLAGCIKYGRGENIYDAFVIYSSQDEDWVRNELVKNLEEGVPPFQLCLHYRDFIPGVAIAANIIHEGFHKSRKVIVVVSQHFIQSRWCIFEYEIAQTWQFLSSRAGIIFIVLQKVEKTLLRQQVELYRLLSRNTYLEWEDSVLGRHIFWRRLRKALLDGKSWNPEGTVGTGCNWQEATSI

CN(Cc1cnc2nc(N)nc(N)c2n1)c1ccc(C(=O)N[C@@H](CCC(=O)O)C(=O)O)cc1 [METHOTREXATE]
IC50 [1]: 1040 nM
Activity [2]: Active
Activity [3]: Active
Activity [4]: Active
Activity [5]: Active
Activity [6]: Active
Activity [7]: Active
Activity [8]: Active
Activity [9]: Active
Activity [10]: Active
inhibition [11]: Active
inhibition [12]: Active

O=C1C=C2CCCCC2C(=O)CC1 (stereo unspecified)
IC50 [1]: 1850 nM

C[C@H]1CCC2C(=O)CCC(=O)C=C2C1 (stereo partly specified)
IC50 [1]: 2660 nM

CC(C)[C@H]1CCC2C(=O)CCC(=O)C=C21 (stereo partly specified)
IC50 [1]: 2820 nM

CC(C)[C@H]1CCC2C(=O)CC(=O)C=C21 (stereo partly specified)
IC50 [1]: 2530 nM

CCOC(=O)[C@H]1CCCC2C(=O)CC(=O)C=C21 (stereo partly specified)
IC50 [1]: 1540 nM

O=C1C=C2CC[C@@H](NC(=O)OCc3ccccc3)CC2C(=O)C1 (stereo partly specified)
IC50 [1]: 560 nM
Activity [2]: Active
Activity [3]: Active
Activity [4]: Active
Activity [5]: Active
Activity [6]: Active
Activity [7]: Active
Activity [8]: Active
Activity [9]: Active
Activity [10]: Active
inhibition [11]: Active
inhibition [12]: Active

CCCC1CCC([C@@H]2CCC3=CC(=O)CC(=O)C3C2)CC1 (stereo partly specified)
IC50 [1]: 730 nM

O=C1C=C2C(CC[C@@H]2Cl)C(=O)C1 (stereo partly specified)
IC50 [1]: 2710 nM
